The values below come from patent publication US9738655B2, “Tetrahydroisoquinolines containing substituted azoles as factor XIa inhibitors” (BRISTOL-MYERS SQUIBB COMPANY, priority 2013, dated 2017).

A word on the pKi: it is the Ki on a negative log10 scale, so that one unit is a factor of ten.

Test [1] concerns the target purified human plasma kallikrein (Homo sapiens (Human), UniProt P03952). The test can be described thus: Plasma kallikrein enzyme inhibition assay (chromogenic substrate S-2302). It is filed as biochemical.
In test [2] the target is purified human Factor XIa (Homo sapiens (Human), UniProt P03951). The test can be described thus: Factor XIa enzyme inhibition assay (chromogenic substrate S-2366).
The mark [3] stands for this setting: measured at 25° C. (no asterisk).
Where [4] appears, read: read-out: Factor XIa Ki, measured at 25° C.
[5] abbreviates: measured at 25° C. (no asterisk), TFA salt.
The mark [6] stands for this setting: read-out: Factor XIa Ki, measured at 25° C., TFA salt.

pKi: −log10 of the molar value. Counter-ions that a name gives are not always drawn. Like-named read-outs stand apart in the source and are kept apart here.

purified human Factor XIa, sequence (P03951 388-625): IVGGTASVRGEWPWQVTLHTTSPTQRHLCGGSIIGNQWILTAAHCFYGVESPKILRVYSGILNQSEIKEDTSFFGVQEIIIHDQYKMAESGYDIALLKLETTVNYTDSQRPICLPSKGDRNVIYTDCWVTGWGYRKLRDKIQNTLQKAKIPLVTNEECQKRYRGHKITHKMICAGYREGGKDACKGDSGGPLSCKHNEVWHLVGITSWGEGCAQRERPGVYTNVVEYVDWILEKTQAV
purified human Factor XIa, sequence (P03951 19-387 partner): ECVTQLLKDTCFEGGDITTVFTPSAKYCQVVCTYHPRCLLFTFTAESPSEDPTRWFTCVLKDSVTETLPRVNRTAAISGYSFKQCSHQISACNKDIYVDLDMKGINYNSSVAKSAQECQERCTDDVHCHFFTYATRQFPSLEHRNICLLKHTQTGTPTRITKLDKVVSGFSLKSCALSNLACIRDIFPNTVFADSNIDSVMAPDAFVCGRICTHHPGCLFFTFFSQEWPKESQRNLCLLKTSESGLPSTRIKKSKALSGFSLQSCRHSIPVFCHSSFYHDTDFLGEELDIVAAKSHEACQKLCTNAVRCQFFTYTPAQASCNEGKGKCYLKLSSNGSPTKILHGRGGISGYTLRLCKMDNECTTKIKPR
purified human plasma kallikrein, sequence (P03952 391-638): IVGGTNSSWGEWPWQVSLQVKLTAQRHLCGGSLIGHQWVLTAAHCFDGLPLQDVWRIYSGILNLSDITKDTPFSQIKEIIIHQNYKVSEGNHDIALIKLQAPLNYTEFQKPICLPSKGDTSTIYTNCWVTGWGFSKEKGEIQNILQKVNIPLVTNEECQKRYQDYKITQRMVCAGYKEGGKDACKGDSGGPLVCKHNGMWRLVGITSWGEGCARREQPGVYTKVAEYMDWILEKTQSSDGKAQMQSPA
purified human plasma kallikrein, sequence (P03952 20-390 partner): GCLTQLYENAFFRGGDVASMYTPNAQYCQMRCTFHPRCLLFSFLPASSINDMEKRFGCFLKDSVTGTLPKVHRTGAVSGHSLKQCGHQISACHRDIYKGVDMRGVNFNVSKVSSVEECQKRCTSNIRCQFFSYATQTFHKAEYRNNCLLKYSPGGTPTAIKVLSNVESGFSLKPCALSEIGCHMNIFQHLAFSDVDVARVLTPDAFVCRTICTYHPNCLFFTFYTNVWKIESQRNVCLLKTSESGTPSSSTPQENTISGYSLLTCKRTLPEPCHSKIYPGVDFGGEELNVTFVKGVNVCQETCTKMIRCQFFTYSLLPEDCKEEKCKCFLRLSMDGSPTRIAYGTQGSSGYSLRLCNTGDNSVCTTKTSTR

In the case of `CO[C@@H]1CCN(c2cccc3c2CCN(C(=O)[C@H]2CC(c4cccc(Cl)c4F)=NO2)[C@H]3C(=O)Nc2ccc(C(=O)O)cc2)C1` [Example 299, 4-((R)-2-((R)-3-(3-chloro-2-fluorophenyl)-4,5-dihydroisoxazole-5-carbonyl)-5-((R)-3-methoxypyrrolidin-1-yl)-1,2,3,4-tetrahydroisoquinoline-1-carboxamido)benzoic acid, TFA salt], the negative logarithm of the Ki (pKi) in test [1] (setting [3]) was 6.50; in test [2] (setting [4]), 7.20.

On to `Cc1c(C(=O)N2CCc3c(-c4cncnc4)cccc3C2C(=O)Nc2ccc(-c3ncc[nH]3)cc2)ncn1-c1cccc(Cl)c1F` (centres unmarked) [Example 136, N-(4-(1H-Imidazol-2-yl)phenyl)-2-(1-(3-chloro-2-fluorophenyl)-5-methyl-1H-imidazole-4-carbonyl)-5-(pyrimidin-5-yl)-1,2,3,4-tetrahydroisoquinoline-1-carboxamide, 2 TFA salt], for which the pKi in test [1] (measured at 37° C. (*)) was 6.80; in test [2] (setting [4]), 8.16.

Consider `O=C(O)c1ccc(NC(=O)C2c3cccc(N4CCN(CC(F)(F)F)CC4=O)c3CCN2C(=O)c2cn(-c3cccc(Cl)c3F)nn2)cc1` (centres unmarked) [Example 197, 4-(2-(1-(3-Chloro-2-fluorophenyl)-1H-1,2,3-triazole-4-carbonyl)-5-(2-oxo-4-(2,2,2-trifluoroethyl)piperazin-1-yl)-1,2,3,4-tetrahydroisoquinoline-1-carboxamido)benzoic acid, TFA salt], for which the pKi in test [1] (setting [3]) is 8.00; in test [2] (setting [4]), above 8.30.

On to `COC1CCN(c2cccc3c2CCN(C(=O)[C@H]2CC(c4cccc(Cl)c4F)=NO2)[C@@H]3C(=O)Nc2cccc(F)c2)CC1` (single isomer, unassigned) [Example 237, TFA salt], for which the pKi in test [1] (measured at 37° C. (*)) is 6.89; in test [2], 7.81.

For `CN(C)C1CCN(c2cccc3c2CCN(C(=O)c2cn(-c4cccc(Cl)c4F)nn2)C3C(=O)Nc2ccc(-c3nnn[nH]3)cc2)CC1` (centres unmarked) [Example 105, N-(4-(1H-Tetrazol-5-yl)phenyl)-2-(1-(3-chloro-2-fluorophenyl)-1H-1,2,3-triazole-4-carbonyl)-5-(4-(dimethylamino)piperidin-1-yl)-1,2,3,4-tetrahydroisoquinoline-1-carboxamide, bis-TFA salt], the pKi in test [1] (setting [3]) is 8.77; in test [2] (setting [4]) it was above 8.30.

Regarding `COC1CCN(c2cccc3c2CCN(C(=O)c2cnn(-c4ccc5nonc5c4)c2)C3C(=O)Nc2ccc(C(=O)O)cc2)CC1` (centres unmarked) [Example 331, 4-(2-(1-(benzo[c][1,2,5]oxadiazol-5-yl)-1H-pyrazole-4-carbonyl)-5-(4-methoxypiperidin-1-yl)-1,2,3,4-tetrahydroisoquinoline-1-carboxamido)benzoic acid], the pKi was below 5.22 in test [1] (measured at 37° C. (*)) and 5.15 in test [2] (setting [4]).

As for `Nc1ccc(-c2cccc3c2CCN(C(=O)c2cn(-c4cccc(Cl)c4F)nn2)C3C(=O)Nc2ccc(C(=O)O)cc2)cn1` (centres unmarked) [Example 39, 4-(5-(6-aminopyridin-3-yl)-2-(1-(3-chloro-2-fluorophenyl)-1H-1,2,3-triazole-4-carbonyl)-1,2,3,4-tetrahydroisoquinoline-1-carboxamido)benzoic acid, bis-TFA salt], the pKi was 8.58 in test [1] (setting [3]) and above 8.30 in test [2] (setting [4]).

On to `CN(C)C1CCN(c2cccc3c2CCN(C(=O)c2cnn(-c4cccc(Cl)c4F)c2)C3C(=O)Nc2ccc(OC(F)F)cc2)CC1` (centres unmarked) [Example 96, 2-(1-(3-chloro-2-fluorophenyl)-1H-pyrazole-4-carbonyl)-N-(4-(difluoromethoxy)phenyl)-5-(4-(dimethylamino)piperidin-1-yl)-1,2,3,4-tetrahydroisoquinoline-1-carboxamide, TFA salt], for which the figures for the pKi in test [1] (setting [3]) and in test [2] (setting [4]) were 7.47 and 7.69, respectively.

For `COC1CCN(c2cccc3c2CCN(C(=O)C2CC(=O)N(c4cccc(Cl)c4F)C2)C3C(=O)Nc2ccc(C(=O)O)cc2)CC1` (centres unmarked) [Example 255, 4-(2-(1-(3-chloro-2-fluorophenyl)-5-oxopyrrolidine-3-carbonyl)-5-(4-methoxypiperidin-1-yl)-1,2,3,4-tetrahydroisoquinoline-1-carboxamido)benzoic acid, TFA salt], the negative logarithm of the Ki (pKi) was 6.66 in test [1] (setting [5]) and 8.15 in test [2] (setting [6]).

Take `C=C(C)c1cccc2c1CCN(C(=O)c1cn(-c3cccc(Cl)c3F)nn1)C2C(=O)Nc1ccc(C(=O)O)cc1` (centres unmarked) [Example 333, 4-(2-(1-(3-Chloro-2-fluorophenyl)-1H-1,2,3-triazole-4-carbonyl)-5-(prop-1-en-2-yl)-1,2,3,4-tetrahydroisoquinoline-1-carboxamido)benzoic acid]: the results for the pKi in test [1] (setting [3]) and in test [2] (setting [4]) were 7.21 and 7.74, respectively.

Turning to `COC(=O)c1ccc(NC(=O)[C@@H]2c3cccc(-c4cncnc4)c3CCN2C(=O)[C@H]2CC(c3cccc(Cl)c3F)=NO2)cc1` [Example 28, Methyl 4-((S)-2-((R)-3-(3-chloro-2-fluorophenyl)-4,5-dihydroisoxazole-5-carbonyl)-5-(pyrimidin-5-yl)-1,2,3,4-tetrahydroisoquinoline-1-carboxamido)benzoate], the pKi in test [1] (measured at 37° C. (*)) was 7.25; in test [2] (setting [4]), above 8.30.

With `COC1CCN(c2cccc3c2CCN(C(=O)c2cnn(-c4cccc(Cl)c4F)c2N)C3C(=O)Nc2ccc(C(=O)O)cc2)CC1` (racemic) [Example 309, 4-(2-(5-amino-1-(3-chloro-2-fluorophenyl)-1H-pyrazole-4-carbonyl)-5-(4-methoxypiperidin-1-yl)-1,2,3,4-tetrahydroisoquinoline-1-carboxamido)benzoic acid, 2 TFA salt], the pKi was 7.54 in test [1] (setting [3]) and above 8.30 in test [2].

For the compound `COC1CCN(c2cccc3c2CCN(C(=O)c2cc(C)n(-c4ccc(Cl)cc4)c2C)C3C(=O)Nc2ccc(C(=O)O)cc2)CC1` (centres unmarked) [Example 147, 4-(2-(1-(4-chlorophenyl)-2,5-dimethyl-1H-pyrrole-3-carbonyl)-5-(4-methoxypiperidin-1-yl)-1,2,3,4-tetrahydroisoquinoline-1-carboxamido)benzoic acid, TFA salt], the pKi in test [1] (measured at 37° C. (*)) was below 5.22; in test [2] (setting [4]) it was 5.57.

As to `COC1CCN(c2cccc3c2CCN(C(=O)C2CC(c4c(C(F)(F)F)ccc(Cl)c4F)=NO2)C3C(=O)Nc2ccc(C(=O)O)cc2)CC1` (centres unmarked) [Example 298, 4-(2-(3-(3-chloro-2-fluoro-6-(trifluoromethyl)phenyl)-4,5-dihydroisoxazole-5-carbonyl)-5-(4-methoxypiperidin-1-yl)-1,2,3,4-tetrahydroisoquinoline-1-carboxamido)benzoic acid, TFA salt], the results for the negative logarithm of the Ki (pKi) in test [1] (setting [5]) and in test [2] (setting [6]) were 6.00 and 7.19, respectively.

As to `O=C(O)c1ccc(NC(=O)C2c3cccc(-c4ccc5c(c4)OCO5)c3CCN2C(=O)c2cn(-c3cccc(Cl)c3F)nn2)cc1` (centres unmarked) [Example 157, 4-(5-(benzo[d][1,3]dioxol-5-yl)-2-(1-(3-chloro-2-fluorophenyl)-1H-1,2,3-triazole-4-carbonyl)-1,2,3,4-tetrahydroisoquinoline-1-carboxamido)benzoic acid], the values for the pKi in test [1] (setting [3]) and in test [2] (setting [4]) were 7.53 and above 8.30, respectively.

`O=C(O)c1ccc(NC(=O)[C@H]2c3cccc(-c4cncnc4)c3CCN2C(=O)c2cn(-c3cccc(Cl)c3F)nn2)cc1` [Example 13, (R)-4-(2-(1-(3-Chloro-2-fluorophenyl)-1H-1,2,3-triazole-4-carbonyl)-5-(pyrimidin-5-yl)-1,2,3,4-tetrahydroisoquinoline-1-carboxamido)benzoic acid]: the figures for the pKi in test [1] (setting [3]) and in test [2] (setting [4]) were 6.37 and 7.92, respectively.

Regarding `NCc1cccc2c1CCN(C(=O)c1cn(-c3cccc(Cl)c3F)nn1)C2C(=O)Nc1ccc(C(=O)O)cc1` (centres unmarked) [Example 109, 4-(5-(Aminomethyl)-2-(1-(3-chloro-2-fluorophenyl)-1H-1,2,3-triazole-4-carbonyl)-1,2,3,4-tetrahydroisoquinoline-1-carboxamido)benzoic acid, TFA salt], the results for the pKi in test [1] (setting [3]) and in test [2] (setting [4]) were 8.64 and 7.84, respectively.

Take `CN(C)C1CCN(c2cccc3c2CCN(C(=O)c2cnn(-c4cccc(Cl)c4F)c2)C3C(=O)Nc2ccc(-c3ncco3)cc2)CC1` (centres unmarked) [Example 93, 2-(1-(3-Chloro-2-fluorophenyl)-1H-pyrazole-4-carbonyl)-5-(4-(dimethylamino)piperidin-1-yl)-N-(4-(oxazol-2-yl)phenyl)-1,2,3,4-tetrahydroisoquinoline-1-carboxamide, bis-TFA salt]: the pKi in test [1] (setting [3]) was 8.02; in test [2] (setting [4]), 8.18.

As for `COc1cncc(-c2cccc3c2CCN(C(=O)c2cn(-c4cccc(Cl)c4F)nn2)C3C(=O)Nc2ccc(C(=O)O)cc2)c1` (centres unmarked) [Example 36, 4-(2-(1-(3-chloro-2-fluorophenyl)-1H-1,2,3-triazole-4-carbonyl)-5-(5-methoxypyridin-3-yl)-1,2,3,4-tetrahydroisoquinoline-1-carboxamido)benzoic acid, TFA salt], the pKi was 7.57 in test [1] (setting [3]) and above 8.30 in test [2] (setting [4]).

Turning to `O=C(O)c1ccc(NC(=O)[C@@H]2c3cccc(N4CCOCC4)c3CCN2C(=O)c2cn(-c3cccc(Cl)c3F)nn2)cc1` [Example 90, (S)-4-(2-(1-(3-Chloro-2-fluorophenyl)-1H-1,2,3-triazole-4-carbonyl)-5-morpholino-1,2,3,4-tetrahydroisoquinoline-1-carboxamido)benzoic acid, TFA salt], the pKi in test [1] (setting [3]) is 8.27; in test [2] (setting [4]), above 8.30.

Consider `O=C(O)c1ccc(NC(=O)[C@@H]2c3ccccc3CCN2C(=O)c2cn(-c3cccc(Cl)c3F)nn2)cc1` [Example 3, (S)-4-(2-(1-(3-Chloro-2-fluorophenyl)-1H-1,2,3-triazole-4-carbonyl)-1,2,3,4-tetrahydroisoquinoline-1-carboxamido)benzoic acid], for which the values for the negative-log Ki (pKi) in test [1] (setting [3]) and in test [2] (setting [4]) were 7.88 and 8.19, respectively.

On to `Cn1ccc(-c2cccc3c2CCN(C(=O)c2cn(-c4cccc(Cl)c4F)nn2)C3C(=O)Nc2ccc(C(=O)O)cc2)n1` (centres unmarked) [Example 43, 4-(2-(1-(3-chloro-2-fluorophenyl)-1H-1,2,3-triazole-4-carbonyl)-5-(1-methyl-1H-pyrazol-3-yl)-1,2,3,4-tetrahydroisoquinoline-1-carboxamido)benzoic acid], for which the pKi in test [1] (setting [3]) is 7.79; in test [2], above 8.30.
